System: KRAS PDC tumor spheroids (HUVEC+MSC), viability
Experiment: Anticancer human tumor 254851-301-R-J1-PDC patient-derived colon carcinoma cell line growth inhibition [KRAS2]
Details: for IC50: curve of first compound; for viability, T/C: stronger effect = lower value
Source text: Multicellular complex tumor spheroid response to RAS pathway inhibitors in combination with a targeted agents in patient-derived cell lines with oncogenic KRAS variants from multiple cancer types
A high-throughput screen of multi-cell type tumor spheroids was designed to identify active combinations of targeted small molecules and KRAS pathway inhibitors. Complex spheroids include a stromal component modeled by human endothelial cells (HUVEC) and fibroblasts modeled by human mesenchymal stem cells (MSCs). The concentration ranges selected for each drug and investigational agent were based upon clinically achievable concentrations if the clinical Cmax of the agent was known.
Compounds. The drugs and investigational agents: BI-3406 (NSC825286), BAY-293 (NSC824723), batoprotafib (TNO155; NSC825523), sotorasib (AMG 510; NSC818433), MRTX1257 (NSC819558), elimusertib (BAY 1895344; NSC800525), molibresib (GSK525762; NSC774829), temuterkib (LY3214996; NSC803410), venetoclax (NSC766270), alisertib (NSC759677), olaparib (NSC753686), talazoparib (NSC767125), erdafitinib (NSC781556), ipatasertib (NSC767898), cabozantinib (NSC761068), nintedanib (NSC756659), abemaciclib (NSC768073), docetaxel (NSC628503), trametinib (NSC758246), and sapanisertib (NSC764658) were obtained from the National Cancer Institute (NCI) Developmental Therapeutics Program Chemical Repository. The FDA-approved anticancer drug set is available from the Developmental Therapeutics Program. […] The stock solutions were prepared in dimethyl sulfoxide (DMSO, Sigma-Aldrich, St. Louis, MO, cat. D2650) at 800-fold the tested concentration and stored at -70 degrees C prior to their use. All drugs and investigational agents were tested over a range starting from a high concentration at or near the clinical Cmax and decreasing in half-log increments. If the clinical Cmax for an agent had not been determined, the highest concentration tested was 10 microM.
Cell Culture. All cells were maintained in an incubator at 37 degrees C and 5% CO2 with 95% humidity. The PDC lines were cultured according to standard operating procedures established by the NCI PDMR (https://pdmr.cancer.gov/sops/default.htm). Briefly, all PDCs were thawed and cultured in Matrigel-coated flasks prepared with a working solution of 1X Ham's F-12 nutrient mix, without supplementation (Invitrogen, Waltham, MA, cat. 11765054), 100 U/mL penicillin-streptomycin (Invitrogen, cat. 15140122), and 2.5% Matrigel (Corning Inc., Corning, NY, cat. 354248) for the first three passages. All PDCs were cultured in complete DMEM/F-12 media containing advanced DMEM/F-12 (Invitrogen, cat. 12634028), 4.9% defined fetal bovine serum, heat inactivated (HyClone Laboratories Inc., Logan, UT, cat. SH30070.03HI), 389 ng/mL hydrocortisone (Sigma-Aldrich, cat. H4001), 9.7 ng/mL human EGF recombinant protein (Invitrogen, cat. PHG0313), 23.4 microg/mL adenine (Sigma-Aldrich, cat. A2786), 97.3 U/mL penicillin-streptomycin (Invitrogen, cat. 15140122), 1.9 mM L-glutamine (Invitrogen, cat. 25030081), and 9.7 microM Y-27632 dihydrochloride (Tocris Bioscience, Bristol, United Kingdom, cat. 1254). The PDCs were cultured in complete DMEM/F12 media without 9.7 microM Y-27632 dihydrochloride for at least two passages prior to the screen. The established cell line HOP-62 was cultured in RPMI 1640 medium, HEPES (Invitrogen, cat. 22400105) with 10% defined fetal bovine serum (HyClone Laboratories Inc., cat. SH30070.03) and 2 mM L-glutamine (Invitrogen, cat. 25030081). The pooled donor HUVEC were cultured in endothelial cell growth medium 2 (PromoCell, Heidelberg, Germany, cat. C-22011) and the hMSC were cultured in mesenchymal stem cell growth medium 2 (PromoCell, cat. C-28009). For all experiments, HUVEC and hMSC were used at passages </=5, while the malignant cell lines were used at passages </=15. […]

[1] = second compound 0.1 µM, first compound 0.0316 µM
[2] = second compound 0.1 µM, first compound 0.1 µM
[3] = second compound 0.1 µM, first compound 0.316 µM
[4] = second compound 0.1 µM, first compound 1 µM
[5] = second compound 0.1 µM, first compound 3.16 µM
[6] = second compound 0.1 µM, first compound 10 µM
[7] = second compound 0.316 µM, first compound 0.0316 µM
[8] = second compound 0.316 µM, first compound 0.1 µM
[9] = second compound 0.316 µM, first compound 0.316 µM
[10] = second compound 0.316 µM, first compound 1 µM
[11] = second compound 0.316 µM, first compound 3.16 µM
[12] = second compound 0.316 µM, first compound 10 µM
[13] = second compound 1 µM, first compound 0.0316 µM
[14] = second compound 1 µM, first compound 0.1 µM
[15] = second compound 1 µM, first compound 0.316 µM
[16] = second compound 1 µM, first compound 1 µM
[17] = second compound 1 µM, first compound 3.16 µM
[18] = second compound 1 µM, first compound 10 µM
[19] = second compound 3.16 µM, first compound 0.0316 µM
[20] = second compound 3.16 µM, first compound 0.1 µM
[21] = second compound 3.16 µM, first compound 0.316 µM
[22] = second compound 3.16 µM, first compound 1 µM
[23] = second compound 3.16 µM, first compound 3.16 µM
[24] = second compound 3.16 µM, first compound 10 µM
[25] = second compound 10 µM, first compound 0.0316 µM
[26] = second compound 10 µM, first compound 0.1 µM
[27] = second compound 10 µM, first compound 0.316 µM
[28] = second compound 10 µM, first compound 1 µM
[29] = second compound 10 µM, first compound 3.16 µM
[30] = second compound 10 µM, first compound 10 µM
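Note: spheroids exposed to compounds for seven days before readout.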
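Throughout, for viability, T/C: 100% = DMSO vehicle control luminescence of the spheroids.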

| Compound | IC50 (second compound 0.1 µM) [nM] | IC50 (second compound 0.316 µM) [nM] | IC50 (second compound 1 µM) [nM] | IC50 (second compound 3.16 µM) [nM] | IC50 (second compound 10 µM) [nM] | viability, T/C [1] [%] | viability, T/C [2] [%] | viability, T/C [3] [%] | viability, T/C [4] [%] | viability, T/C [5] [%] | viability, T/C [7] [%] | viability, T/C [8] [%] | viability, T/C [9] [%] | viability, T/C [10] [%] | viability, T/C [11] [%] | viability, T/C [13] [%] | viability, T/C [14] [%] | viability, T/C [15] [%] | viability, T/C [16] [%] | viability, T/C [17] [%] | also measured |
| --- | --- | --- | --- | --- | --- | --- | --- | --- | --- | --- | --- | --- | --- | --- | --- | --- | --- | --- | --- | --- | --- |
| CC1(C)CCC(CN2CCN(c3ccc(C(=O)NS(=O)(=O)c4ccc(NCC5CCOCC5)c([N+](=O)[O-])c4)c(Oc4cnc5[nH]ccc5c4)c3)CC2)=C(c2ccc(Cl)cc2)C1 + C=CC(=O)N1CCN(c2nc(=O)n(-c3c(C)ccnc3C(C)C)c3nc(-c4c(O)cccc4F)c(F)cc23)C(C)C1 | > 10000 | > 10000 | > 10000 | > 10000 | > 10000 | 106 | 112 | 98.2 | 95.4 | 95.3 | 106 | 115 | 91.2 | 95.1 | 91.3 | 114 | 115 | 105 | 104 | 93.8 | viability, T/C [6]: 73.6%; viability, T/C [12]: 91.6%; viability, T/C [18]: 74.3%; viability, T/C [19]: 102%; viability, T/C [20]: 119%; viability, T/C [21]: 102%; viability, T/C [22]: 103%; viability, T/C [23]: 92.7%; viability, T/C [24]: 84.9%; viability, T/C [25]: 109%; viability, T/C [26]: 109%; viability, T/C [27]: 97.8%; viability, T/C [28]: 107%; viability, T/C [29]: 93.8%; viability, T/C [30]: 83.7% |
| CC(=O)OC12COC1CC(O)C1(C)C(=O)C(O)C3=C(C)C(OC(=O)C(O)C(NC(=O)OC(C)(C)C)c4ccccc4)CC(O)(C(OC(=O)c4ccccc4)C21)C3(C)C (stereo not given) + CNCc1ccccc1-c1csc(C(C)Nc2nc(C)nc3cc(OC)c(OC)cc23)c1 | 176 | 126 | 184 | 22.7 | < 10 | 86.3 | 62.6 | 37.7 | 26.1 | 25.3 | 79.9 | 55.7 | 30.4 | 25.5 | 25.4 | 80.5 | 61.5 | 39.8 | 25.3 | 24 | viability, T/C (second compound 0.1 µM, first compound 0.01 µM): 101%; viability, T/C (second compound 0.316 µM, first compound 0.01 µM): 90%; viability, T/C (second compound 1 µM, first compound 0.01 µM): 81.3%; viability, T/C (second compound 3.16 µM, first compound 0.01 µM): 77%; viability, T/C [19]: 38.9%; viability, T/C [20]: 9.76%; viability, T/C [21]: 13.6%; viability, T/C [22]: 0.92%; viability, T/C [23]: 23.3%; viability, T/C (second compound 10 µM, first compound 0.01 µM): 1.07%; viability, T/C [25]: 0.14%; viability, T/C [26]: 1.91%; viability, T/C [27]: 0.55%; viability, T/C [28]: 24.2%; viability, T/C [29]: 0.21% |
| CCNC(=O)CC1N=C(c2ccc(Cl)cc2)c2cc(OC)ccc2-n2c(C)nnc21 (stereo not given) + COc1cc2nc(C)nc(NC(C)c3cc(N)cc(C(F)(F)F)c3)c2cc1OC1CCOC1 | 3470 | 2530 | 1940 | 668 | 712 | 115 | 123 | 97.6 | 84.8 | 45 | 113 | 122 | 109 | 65.8 | 45.5 | 103 | 111 | 98.6 | 65.9 | 39.2 | viability, T/C [6]: 43%; viability, T/C [12]: 45.5%; viability, T/C [18]: 17.6%; viability, T/C [19]: 73%; viability, T/C [20]: 107%; viability, T/C [21]: 76%; viability, T/C [22]: 36.2%; viability, T/C [23]: 22.4%; viability, T/C [24]: 26.4%; viability, T/C [25]: 79.9%; viability, T/C [26]: 81.6%; viability, T/C [27]: 74.8%; viability, T/C [28]: 39.2%; viability, T/C [29]: 22.9%; viability, T/C [30]: 15.7% |
| COC(=O)c1ccc2c(C(=Nc3ccc(N(C)C(=O)CN4CCN(C)CC4)cc3)c3ccccc3)c(O)[nH]c2c1 + CC1OCC2(CCN(c3cnc(Sc4ccnc(N)c4Cl)c(N)n3)CC2)C1N | > 10000 | > 10000 | > 10000 | > 10000 | 2370 | 95.4 | 100 | 96 | 95 | 90.4 | 88.3 | 84.5 | 79.5 | 81.8 | 82 | 75.6 | 76.1 | 75.6 | 68.1 | 69.2 | viability, T/C [6]: 88.6%; viability, T/C [12]: 78.5%; viability, T/C [18]: 81.6%; viability, T/C [19]: 64.9%; viability, T/C [20]: 67.5%; viability, T/C [21]: 66%; viability, T/C [22]: 65.1%; viability, T/C [23]: 55.1%; viability, T/C [24]: 63%; viability, T/C [25]: 63.5%; viability, T/C [26]: 70%; viability, T/C [27]: 57.9%; viability, T/C [28]: 60.7%; viability, T/C [29]: 41.4%; viability, T/C [30]: 41.6% |
